Measurements as given in US11660319B2, “Compositions comprising bacterial strains” (priority 2017, dated 2023).

Assays:
BALBc mice = test: Ex vivo gene expression in colon and ileum of mice fed with bacteria; set-up: species or system mouse
Experimental: Animals were allowed to habituate to their holding room for one week after arrival into the animal unit. They receive oral gavage (200 μL dose) of live biotherapeutics at a dose of 1×10^9 CFU for 6 consecutive days between 15:00 and 17:00. On day 7, the animals are decapitated, and tissues are harvested for experimentation. The in vitro results were compared with data from the ex vivo parallel analysis on the gut of mice fed with […] expression of TJP2 and occludin was quantified in the colon and ileum. […] Total RNA was extracted using the mirVanaTM miRNA Isolation kit (Ambion/Llife technologies, Paisley, UK) and DNase treated (Turbo DNA-free, Ambion/life technologies) according to the manufacturers recommendations. RNA was quantified using NanoDropTM spectrophotometer (Thermo Fisher Scientific Inc., Wilmington, Del., USA) according to the manufacturer's instructions. RNA quality was assessed using the Agilent Bioanalyzer (Agilent, Stockport, UK) according to the manufacturer's procedure and an RNA integrity number (RIN) was calculated. […] RNA was reverse transcribed to cDNA using the Applied Biosystems High Capacity cDNA kit (Applied Biosystems, Warrington, UK) according to manufacturer's instructions. Briefly, Multiscribe Reverse Transcriptase (50 U/μL) (1)(2)(1)(10) was added as part of RT master mix, incubated for 25° C. for 10 min, 37° C. for 2 h, 85° C. for 5 min and stored at 4° C. Quantitative PCR was carried out using probes (6 carboxy fluorescein-FAM) designed by Applied Biosystems to mouse specific targeted genes, while using β-actin as an endogenous control. Amplification reactions contained 1 μl cDNA, 5 μl of the 2× PCR Master mix (Roche), 900 nM of each primer and were brought to a total of 10 μl by the addition of RNase-free water. All reactions were performed in triplicate using 96-well plates on the LightCycler®480 System. Thermal cycling conditions were as recommended by the manufacturer (Roche) for 55 cycles. To check for amplicon contamination, each run contained no template controls in triplicate for each probe used. Cycle threshold (Ct) values were recorded. Data was normalized using β-actin and transformed using the 2-ΔΔCT method and presented as a fold change vs. control group.

[1] = system: HT29-mtx epithelial, mucin-producing cell monolayers; test: mRNA expression of tight junction proteins in HT29-mtx (qRT-PCR); format: cell-based; conditions: 2 h incubation
Experimental: Total RNA was extracted using the RNeasy mini kit (Qiagen, Manchester, JUK) according to the manufacturer's instructions, and the RNA concentration determined by absorbance at 260/280 nm using a spectrophotometer (nano-Drop ND-1000; Thermo Scientific, Wilmington, Del.). For mRNA expression analysis, cDNA was prepared from total RNA using the High-Capacity cDNA reverse transcription kit (Applied Biosystems, UK) according to the manufacturer's instructions. The reverse transcription reactions were performed in a Thermo cycler (Biometra, Germany) at 25° C. for 10 min, 37° C. for 120 min, and 85° C. for 5 min, hold on at 4° C. Resulting cDNA was amplified in duplicates by the SYBR-Green PCR assay, and products were detected on QuantStudio 6 flex real-time PCR machine (Applied Biosystems, UK) using a standardised profile (initial denaturation of 95° C. for 10 minutes, followed by 40 cycles of 15 seconds of denaturation at 95° C. and 60 seconds of annealing/extension at 60/65° C., depending on the primers. A dissociation stage was added after the 40 cycles to generate a melting curve. Analysis was performed using the Applied Biosystems QuantStudio Real-Time PCR Software v1.2. The primer sequences for Actin, Villin, Occludin TJP1 and TJP2 are provided in the sequence listing.

[2] = system: differentiated neuroblasoma cells; test: BDNF secretion in SHSY-5Y cells; format: cell-based, human; conditions: in combination with retinoic acid (10 μM, differentiation); 50 μl bacteria SN
Experimental: SH-SY5-SY were plated in 24 wells plate at density of 60,000 cells/well and placed in the incubator. After 24 h, media were replaced with differentiation medium (growth medium containing 1% FBS) and 10 μM retinoic acid. Differentiation medium was replaced every other day and cells were used on day 10 of differentiation. For the treatment differentiation medium was removed and replaced with 450 ul of full growth media and 50 μl of bacteria SN was added to the treated wells or YCFA+ was added as negative Control.

SH-SY5Y cells = test: MAP2 and β3-tubulin immunoblotting / confocal microscopy; format: cell-based, human; conditions: treated 24 h; actin loading control
Experimental: Cells were seeded onto 8-well chamber slides (Marienfeld Laboratory Glassware) at 5×10^4 cells/well overnight and were treated with 10% bacterial supernatant for 24 h. For differentiation, cells were treated with 10 nM RA for 5 days before treating with cell-free bacterial supernatant for 24 h. Afterwards, the cells were fixed with 4% paraformaldehyde in PBS for 20 minutes at room temperature (RT). Fixed cells were washed with PBS, and permeabilized with 1% Triton X-100 in PBS for 10 minutes. After washing with PBS, the slides were incubated with blocking buffer (4% BSA/PBS) for 1 h at RT before adding anti-MAP2 antibody or β3-tubulin (sc-74421 and sc-80005 respectively, Santa Cruz Biotechnology Inc) diluted in 1% BSA/PBS for 12 h at 4° C. They were then washed twice with PBS, followed by incubation with Alexa Flour 488 conjugated anti-mouse (Molecular Probes Inc) and Alexa Flour 594 conjugated Phalloidin (ab176757, Abcam) for 1 h at RT. […]
SH-SY5Y cells cultured under the indicated conditions described above, treated with MRx0005 and MRx0029 for 24 h and then lysed in RIPA buffer containing cocktail of protease inhibitors (Roche Diagnostics, UK). […] The blots were then incubated with the appropriate horseradish peroxidase (HRP)-conjugated secondary antibody, and proteins were detected by chemiluminescence detection kit (Pierce Biotechnology, Rockford, Ill.). […]

[3] = system: U373 astroglioblastoma cells; test: ROS generated by TBHP (DCFDA fluorescence); format: cell-based, human; conditions: 10% bacteria supernatant

Substance: Megasphaera massiliensis [MRx0029]
- expression tryptophan hydroxylase-1 (Tph1) (BALBc mice; colon): significantly increase
- TJP1 expression in colon (BALBc mice; colon region of the murine intestine): significantly up-regulate
- Occludin expression in colon (BALBc mice; colon region of the murine intestine, p=0.073): significantly up-regulate
- Occludin mRNA expression [1]: enhanced
- Tight Junction Protein 1 (TJP1) mRNA expression [1]: enhanced
- Tight Junction Protein 2 (TJP2) mRNA expression [1]: enhanced
- Vlillin mRNA expression [1]: enhanced
- secretion of BDNF [2]: increases
- level expression of MAP2 (immunoblot) (SH-SY5Y cells): increase
- generation of ROS [3]: did not have an effect
